# Results as given in the NIST ThermoML archive (doi:10.1021/acs.jced.6b00901).
# ± gives the expanded uncertainty stated by the source.
# Assay: refractive index (Na D-line) (dimensionless)
# Details: 101.33 kPa, Liquid, Standard Abbe refractometry
SMILES,refractive index (308.15 K),refractive index (313.15 K),refractive index (318.15 K),refractive index (323.15 K),refractive index (283.15 K),refractive index (288.15 K),refractive index (293.15 K),refractive index (298.15 K),refractive index (303.15 K)
"C1=CC2C3C=CC(C3)C2C1 (configuration not stated) [3a,4,7,7a-tetrahydro-4,7-methanoindene]",1.5069 ± 0.0004,1.5045 ± 0.0004,1.5019 ± 0.0004,1.4991 ± 0.0004,,,,,
C=Cc1ccccc1 [styrene],1.538 ± 0.0004,1.5352 ± 0.0004,1.5321 ± 0.0004,1.5291 ± 0.0004,1.5533 ± 0.0004,1.5505 ± 0.0004,1.5472 ± 0.0004,1.544 ± 0.0004,1.5409 ± 0.0004
CCOC(=O)c1ccccc1C(=O)OCC [diethyl phthalate],1.4962 ± 0.0004,1.4939 ± 0.0004,1.4917 ± 0.0004,1.4897 ± 0.0004,1.507 ± 0.0004,1.5048 ± 0.0004,1.5027 ± 0.0004,1.5005 ± 0.0004,1.4984 ± 0.0004
